Data published in the supplement of paper PMC10307832.

compound: O=C(Nc1cc(C(F)(F)F)cc(C(F)(F)F)c1)c1cc(Cl)ccc1O [IMD-0354] + O=C(c1cc(Cc2n[nH]c(=O)c3ccccc23)ccc1F)N1CCN(C(=O)C2CC2)CC1 [Olaparib] (partner 8 µM); assay: relative viability (nuclei count vs DMSO), 5 days (fraction); higher = more cells survive; details: first compound 0.04 µM
How it was run: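 Lung cancer cell lines in 1536-well plates got either a single drug or a fixed anchor-drug dose together with five library-drug doses (not always all listed) in √10 steps, by pin tool, on the day after seeding. Nuclei were counted after 5 days, and relative viability is the treated-to-vehicle ratio of nuclei counts. Values are medians of duplicate plates.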

Cell Line	relative viability
NCI-H1395	0.449
NCI-H2087	0.517
NCI-H2342	0.432
LK-2	0.695
H3255	0.49
COR-L23	0.298
COR-L 105	0.644
IA-LM	0.829
LOU-NH91	0.938
ChaGo-K-1	0.34
NCI-H358	0.569
NCI-H2405	0.905
HOP-62	0.262
HCC-44	0.994
A549	0.365
SW 900	0.928
LU99A	0.196
BEN	1.07
HARA	0.455
NCI-H1648	0.528
HCC-78	0.814
NCI-H322M	0.789
LCLC-97TM1	0.407
NCI-H2009	0.625
A-427	0.847
NCI-H441	0.537

Cell Line	relative viability
NCI-H661	0.752
NCI-H1734	0.608
NCI-H460	0.395
NCI-H2347	0.606
SW 1573	0.537
NCI-H1793	0.856
201T	0.872
NCI-H1915	0.264
HCC-827	0.55
LXF-289	0.959
NCI-H23	0.277
NCI-H1299	0.767
NCI-H647	0.67
CAL-12T	0.728
NCI-H1651	0.189
EPLC-272H	1.16
NCI-H2228	0.888
NCI-H1792	0.393
NCI-H1355	0.663
NCI-H3122	0.461
NCI-H1437	0.669
NCI-H1755	0.782
NCI-H2023	0.504
HCC-15	0.576
NCI-H1944	0.377
PC-14	0.223

same assay, conditions: first compound 0.1265 µM

Cell Line	relative viability
NCI-H522	0.716
NCI-H727	0.633
NCI-H1650	0.82
EBC-1	0.661
NCI-H1703	0.468
NCI-H1993	0.982
SK-LU-1	0.395
NCI-H838	0.73
LCLC-103H	0.739
NCI-H520	0.317
NCI-H2126	0.908
EMC-BAC-2	0.511
NCI-H2085	0.795
Calu-6	0.57
HCC-366	0.371
NCI-H1666	0.748
NCI-H596	0.635
NCI-H1395	0.464
NCI-H2087	0.457
NCI-H2342	0.478
LK-2	1.02
H3255	0.541
COR-L23	0.32

Cell Line	relative viability
COR-L 105	0.666
IA-LM	0.729
LOU-NH91	0.447
ChaGo-K-1	0.455
NCI-H358	0.543
NCI-H2405	0.866
HOP-62	0.413
HCC-44	1.04
A549	0.555
SW 900	0.948
LU99A	0.269
BEN	0.975
HARA	0.697
NCI-H1648	0.484
HCC-78	0.744
NCI-H322M	0.773
LCLC-97TM1	0.387
NCI-H2009	0.694
A-427	0.809
NCI-H441	0.541
NCI-H661	0.774
NCI-H1734	0.68
NCI-H460	0.322

Cell Line	relative viability
NCI-H2347	0.64
SW 1573	0.467
NCI-H1793	0.797
201T	0.833
NCI-H1915	0.263
HCC-827	0.614
LXF-289	0.945
NCI-H23	0.35
NCI-H1299	0.969
NCI-H647	0.485
CAL-12T	0.705
NCI-H1651	0.196
EPLC-272H	0.495
NCI-H2228	0.586
NCI-H1792	0.389
NCI-H1355	0.769
NCI-H3122	0.633
NCI-H1437	0.574
NCI-H1755	0.907
NCI-H2023	0.427
HCC-15	0.69
NCI-H1944	0.331
PC-14	0.276

same assay, conditions: first compound 0.4 µM

Cell Line	relative viability
NCI-H522	0.625
NCI-H727	0.617
NCI-H1650	0.463
EBC-1	0.503
NCI-H1703	0.358
NCI-H1993	0.819
SK-LU-1	0.325
NCI-H838	0.426
LCLC-103H	0.566
NCI-H520	0.318
NCI-H2126	0.68
EMC-BAC-2	0.327
NCI-H2085	0.713
Calu-6	0.428
HCC-366	0.231
NCI-H1666	0.857
NCI-H596	0.701
NCI-H1395	0.466
NCI-H2087	0.207
NCI-H2342	0.356
H3255	0.435

Cell Line	relative viability
COR-L23	0.286
COR-L 105	0.62
IA-LM	0.521
LOU-NH91	0.285
ChaGo-K-1	0.375
NCI-H358	0.335
NCI-H2405	0.491
HOP-62	0.347
HCC-44	0.571
A549	0.108
SW 900	0.66
LU99A	0.257
BEN	0.782
HARA	0.935
NCI-H1648	0.565
HCC-78	0.649
NCI-H322M	0.6
LCLC-97TM1	0.213
NCI-H2009	0.591
A-427	0.494
NCI-H441	0.604
